One data set concerns the target T1, eeAChE (Electrophorus electricus, UniProt O42275).
T1 construct: purchased Sigma-Aldrich C3389
Briefly: biochemical. The class given is biochemical. The conditions noted are these: for Selectivity Index for AChE: IC50(BChE)/IC50(AChE); for IC50: Table 1, mean ± SD. The method, then:
(§1) The abilities of synthesized 22 compounds to inhibit AChE and BuChE activity were determined following Ellman’s procedure using a Perkin Elmer Lambda 35 spectrophotometer with thermostated 1.00 cm quartz cells. AChE’s and BuChE’s stock solutions were diluted with 20 mM TRIS to give 1 unit per mL of enzymes’ activity. […] A 0.01 M DTNB solution was prepared with 0.1 M phosphate buffer (pH 7) containing 0.15% (w/v) sodium bicarbonate. A 0.1 M phosphate buffer (pH 8) was used for assay. pH was adjusted to 8.0 ± 0.1 by adding aliquots of concentrated HCl. Stock solutions (10 mM) of investigated compounds were prepared daily by dissolving solid compounds in DMSO. Diluted solutions were also prepared in DMSO.
(§2) Briefly, enzymes’ assays were prepared as follows. […] Thereafter, 20 μL of ASChI or BSChCI was added, after which the reaction was initiated. […] For the blank value, the addition of 20 μL of buffer replaced the enzyme solution while an addition of 7 μL of DMSO replaced the inhibitor solution. The control solution contained 7 μL of DMSO instead of the inhibitor. The screening test was performed at a 1 × 10^−5 M concentration, and the compounds with more than 50% of inhibition were further assayed using dilution series of up to eight increasing concentrations (10^−5 M to 10^−9 M). The inhibition potency was presented as the dependence on the relative enzyme activity (REA) as the function of the compound’s concentration. IC50 values were determined graphically from Hill curves using Origin 9 Microsoft Windows.

A further data set concerns the target T2, eqBuChE (Equus caballus, UniProt P81908).
T2 construct: butyrylcholinesterase (BuChE) from horse serum (C1057); purchased Sigma-Aldrich C1057; host or cells: horse serum
Briefly: biochemical. Particulars: Table 1; preincubation 6 min, incubation 6 min, 37 °C; mean ± SD; read-out: IC50 BuChE. The method, then:
as §1, §2

A short description of data set [1]: logP determination by UPLC. Particulars: reversed-phase ACQUITY UPLC BEH C18 column; UPLC method. The class given is physicochemical. The method, then: . The column used for logP determinations was ACQUITY UPLC BEH C18 column with the dimensions 1.7 μm × 100 mm × 2.1 mm (Waters). The measurements were performed in the isocratic mode. The eluent flow rate was 0.25 mL min^−1, and the injection volume was 5 μL. The mobile phase composition was a different percentage of acetonitrile and H2O (we ran a chromatogram for each compound with different eluent compositions and the acetonitrile fraction ranging from 64% to 91%). The wavelength of the optical detection was 256 nm, the retention times for every examined compound under certain experimental conditions were determined. At the beginning, the compound’s retention factor, k’, was determined for different percentages of acetonitrile in the mobile phases. The column’s dead time was determined by the injection of sodium bromide. After that, the retention factors for a pure aqueous eluent (log kw) were determined for the compounds with previously known logPo/w values as well as for the investigated compounds. […]

Another data set is described as follows: in vitro. Particulars: for PAMPA-BBB Permeability Pe: porcine polar brain lipids, UPLC quantification; for Papp: pig, PAMPA. How it is done: The assay was performed according to the method reported by Di et al. with slight modification. Commercial drugs, verapamil, and caffeine were used to validate the protocol. […] Each sample was analyzed with at least three independent experiments in three wells.
Background: PAMPA measures passive passage across an artificial lipid membrane.

Data set [2] concerns the target T3, AChE (Electrophorus electricus, UniProt O42275).
T3 construct: purchased Sigma-Aldrich C3389
Briefly: Kinetic study of AChE inhibition (Lineweaver-Burk). The class given is biochemical. The conditions noted are these: for Type of Inhibition (AChE): Lineweaver-Burk plot; for Ki: preincubation 6 min, incubation 2 min. The method, then:
(§3) Kinetic studies of ChE enzymes were also performed using the above-mentioned modified Ellman’s method. The preincubation time was 6 min, while the incubation time was 2 min. The type of enzyme inhibition was justified by the Lineweaver–Burk plot (double reciprocal plot) for selected inhibitor concentrations, and substrate concentrations ranged from 0.01 to 1 mM. The kinetic parameters Km, Vmax, and Ki were determined. Graphs were plotted using Origin9 for Microsoft Windows.

The target of data set [3] is T4, BuChE (Equus caballus, UniProt P81908).
T4 construct: butyrylcholinesterase (BuChE) from horse serum (C1057); purchased Sigma-Aldrich C1057; host or cells: horse serum
T4 sequence (P81908 whole entry): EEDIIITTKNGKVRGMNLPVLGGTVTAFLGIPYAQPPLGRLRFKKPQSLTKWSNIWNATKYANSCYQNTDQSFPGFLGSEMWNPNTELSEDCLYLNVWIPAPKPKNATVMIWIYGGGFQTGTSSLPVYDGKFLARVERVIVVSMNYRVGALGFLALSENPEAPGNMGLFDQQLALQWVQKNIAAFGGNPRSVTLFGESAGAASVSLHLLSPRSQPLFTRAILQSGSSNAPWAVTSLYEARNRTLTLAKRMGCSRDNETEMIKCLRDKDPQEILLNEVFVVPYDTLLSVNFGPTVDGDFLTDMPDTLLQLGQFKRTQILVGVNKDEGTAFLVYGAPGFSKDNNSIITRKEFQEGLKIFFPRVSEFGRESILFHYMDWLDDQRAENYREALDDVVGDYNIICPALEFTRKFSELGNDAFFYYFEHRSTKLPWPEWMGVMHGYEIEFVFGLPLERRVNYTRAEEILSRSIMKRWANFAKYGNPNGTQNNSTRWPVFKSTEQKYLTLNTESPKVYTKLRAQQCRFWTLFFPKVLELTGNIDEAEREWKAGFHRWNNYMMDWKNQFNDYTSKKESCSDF
As to the kind of experiment: Kinetic study of BuChE inhibition (Lineweaver-Burk). The class given is biochemical. How it is done:
as §3

Data set [4] addresses T3, AChE. Briefly: Trp fluorescence-quenching titration of AChE. Type of data set: binding. Particulars: 5 IU/mL AChE. How it is done:
(§4) Fluorescence titration studies were conducted using the Agilent Cary Eclipse fluorescence spectrophotometer. Fluorescence-quenching spectra were recorded within the wavelength range of 320–450 nm, with an excitation at 295 nm at room temperature. Excitation and emission slit widths were both set at 5 nm, and the scanning rate was fixed at 9600 nm/min. The concentration of enzymes was 5 IU/mL. The incubation time between each addition of THIQ aliquots was 6 min.

Data set [5] addresses T4, BuChE. Briefly: Trp fluorescence titration of BuChE. The class given is binding. The conditions noted are these: 5 IU/mL BuChE. The method, then: as §4
Where [6] appears, read: preincubation 6 min, incubation 6 min, 37 °C.
Where [7] appears, read: excitation 295 nm, room temperature.

The values below come from publication PMC10816625, “Targeting Alzheimer’s Disease: Evaluating the Efficacy of C-1 Functionalized N-Aryl-Tetrahydroisoquinolines as Cholinergic Enzyme Inhibitors and Promising Therapeutic Candidates” (International Journal of Molecular Sciences, 2024).

For orientation: IC50 means the point on the concentration scale where inhibition reaches its midpoint. As usually defined, the chromatographic logP is a lipophilicity value derived from retention on a column. For orientation: Papp means the rate of passage across a membrane or cell layer, normalised by area and donor concentration. High values mean fast passage, low ones slow passage. For orientation: Ki means the equilibrium dissociation constant of an inhibitor or competing ligand from its target.

“Also recorded” adds a separate entry of the source.

T2 sequence (P81908 whole entry): as above
T3 sequence (O42275 24-633): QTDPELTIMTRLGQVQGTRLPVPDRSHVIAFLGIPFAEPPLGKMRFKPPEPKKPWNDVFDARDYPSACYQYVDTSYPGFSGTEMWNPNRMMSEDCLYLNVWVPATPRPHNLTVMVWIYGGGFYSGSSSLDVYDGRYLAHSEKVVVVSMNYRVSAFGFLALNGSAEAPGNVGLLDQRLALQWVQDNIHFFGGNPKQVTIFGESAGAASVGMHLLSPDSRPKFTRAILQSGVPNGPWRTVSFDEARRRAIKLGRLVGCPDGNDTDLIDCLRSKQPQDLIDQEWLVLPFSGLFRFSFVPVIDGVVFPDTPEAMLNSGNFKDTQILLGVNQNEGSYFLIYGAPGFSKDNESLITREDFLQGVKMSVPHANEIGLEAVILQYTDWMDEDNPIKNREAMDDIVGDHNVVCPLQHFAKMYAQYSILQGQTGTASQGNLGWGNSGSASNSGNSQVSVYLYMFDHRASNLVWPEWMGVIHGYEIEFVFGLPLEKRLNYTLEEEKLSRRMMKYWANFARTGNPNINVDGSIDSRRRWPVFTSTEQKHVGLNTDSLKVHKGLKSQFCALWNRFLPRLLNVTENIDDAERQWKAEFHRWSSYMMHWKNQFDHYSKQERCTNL
T1 sequence (O42275 24-633): as above

With `COc1cc2c(cc1OC)C(CCC(=O)c1ccccc1)N(c1ccccc1)CC2` (stereo not shown) [Compound 3g], at eeAChE, the “Selectivity Index for AChE” value is reported as 1.18. Also, the concentration for half-maximal inhibition (IC50) was determined as 6.78 ± 0.22 µM against eeAChE (setting [6]) and 8.01 ± 0.55 µM at eqBuChE.
`COc1cc2c(cc1OC)C(CCC(=O)CCc1ccccc1)N(c1ccccc1)CC2` (stereo not shown) [Compound 3k]: the concentration for half-maximal inhibition (IC50) on eeAChE (setting [6]) was 4.02 ± 0.19 µM; on eqBuChE, > 10 µM.
On to `CC(=O)CC1c2ccccc2CCN1c1ccc(F)cc1` (stereo not shown) [Compound 2b], for which the “Selectivity Index for AChE” value on eeAChE worked out at 1.63. Moreover, the IC50 stood at 5.46 ± 0.58 µM against eeAChE (setting [6]) and 8.9 ± 2.03 µM at eqBuChE.
With `COc1cc2c(cc1OC)C(CCC(=O)c1ccccc1)N(c1ccc(F)cc1)CC2` (stereo not shown) [Compound 3h], the IC50 at eeAChE (setting [6]) and at eqBuChE was > 10 µM throughout.
Regarding `O=C(CC1c2ccccc2CCN1c1ccccc1)c1ccccc1` (stereo not shown) [Compound 3a], the “Selectivity Index for AChE” value on eeAChE stood at 1.93. Also, the half-inhibitory concentration (IC50) against eeAChE (setting [6]) is 4.29 ± 0.09 µM; on eqBuChE, 8.26 ± 1.05 µM.
As for `COc1cc2c(cc1OC)C(CC(=O)c1ccccc1)N(c1ccc(F)cc1)CC2` (stereo not shown) [Compound 3d], the values for the concentration for half-maximal inhibition (IC50) against eeAChE (setting [6]) and on eqBuChE were 4.89 ± 0.15 µM and > 10 µM, respectively. Moreover, the “fold lower inhibitory activity towards AChE” value on eeAChE (compared to unsubstituted 3c) is on record as 2.5 fold.
As to `N#CC1c2ccccc2CCN1c1ccccc1` (stereo not shown) [Compound 4a], the half-inhibitory concentration (IC50) on eeAChE (setting [6]) and on eqBuChE was > 10 µM throughout.
With `COc1cc2c(cc1OC)C(C#N)N(c1ccc(F)cc1)CC2` (stereo not shown) [Compound 4b], the IC50 against eeAChE (setting [6]) and on eqBuChE was > 10 µM each time.
`O=C(CCC1c2ccccc2CCN1c1ccccc1)c1ccccc1` (stereo not shown) [Compound 3f]: the “Selectivity Index for AChE” value at eeAChE came to 2.59. Moreover, the results for the 50% inhibitory concentration (IC50) at eeAChE (setting [6]) and at eqBuChE were 2.42 ± 0.09 µM and 6.28 ± 0.36 µM, respectively. Besides, in data set [1], the chromatographic logP came out at 3.66. The “PAMPA-BBB Permeability Pe” value in the data set “in vitro” is “impossible to be detected; also recorded: High hydrophobicity; it retained in the membrane”.
With `Cn1c(=O)c2c(ncn2C)n(C)c1=O` [Caffeine, reference compound], in the data set “in vitro”, the Papp was 1.47 ×10⁻⁶ cm/s.
With `c1ccc(N2CCc3ccccc3C2)cc1` [Compound 1a, N-phenyl-1,2,3,4-tetrahydroisoquinoline], at eeAChE (1 × 10^−5 M, preincubation 6 min, incubation 6 min, 37 °C), the “Residual Activity at 1 × 10^−5 M AChE” value was “did not show inhibition potential”. The IC50 at eeAChE (setting [6]) and on eqBuChE was > 10 µM in each case.
Regarding `COc1cc2c(cc1OC)C(C#N)N(c1ccc(C)cc1)CC2` (stereo not shown) [Compound 4c], the IC50 against eeAChE (setting [6]) and on eqBuChE was > 10 µM throughout.
In the case of `COc1cc2c(cc1OC)C(CC(C)=O)N(c1ccc(F)cc1)CC2` (stereo not shown) [Compound 2d], the IC50 at eeAChE (setting [6]) and on eqBuChE was > 10 µM each time.
With `CCC(=O)CC1c2cc(OC)c(OC)cc2CCN1c1ccccc1` (stereo not shown) [Compound 2e], the IC50 on eeAChE (setting [6]) is > 10 µM.
For `COc1cc2c(cc1OC)C(CC(C)=O)N(c1ccccc1)CC2` (stereo not shown) [Compound 2c], the concentration for half-maximal inhibition (IC50) against eeAChE (setting [6]) is 5.04 ± 0.28 µM; on eqBuChE, > 10 µM.
As to `O=C(CCc1ccccc1)CCC1c2ccccc2CCN1c1ccccc1` (stereo not shown) [Compound 3i], the “Selectivity Index for AChE” value at eeAChE turned out to be 2.45. Besides, the half-maximal inhibitory concentration (IC50) at eeAChE (setting [6]) was 1.11 ± 0.04 µM. The IC50 at eqBuChE was 2.72 ± 0.2 µM. For the same molecule, at AChE [2], the “Type of Inhibition (AChE)” value is “Non-competitive” and the inhibition constant (Ki) was 1060 ± 10 nM. For the same molecule, at BuChE [3] (Lineweaver-Burk plot), the “Type of Inhibition (BuChE)” value is “mixed type of inhibition (non-competitive/uncompetitive); also recorded: Mix non-competitive/uncompetitive”. On BuChE [3] (preincubation 6 min, incubation 2 min), this molecule came in with an inhibition constant Ki of 1040 ± 100 nM. Also, at AChE [4], the “Quenching of Trp fluorescence of AChE” value is given as “quenching of Trp fluorescence was observed” and the “n (number of binding sites)” value was found to be 0.94 ± 0.04. At AChE [4] (setting [7]), the Ksv entry is “(6.96 ± 0.05) × 10^4 M^−1” and the “kq (bimolecular quenching constant)” value is given as “(6.96 ± 0.05) × 10^14 M^−1s^−1”. On BuChE [5], the “Effect on Trp fluorescence of BuChE” value is reported as “fluorescence intensity of BuChE was increased”. Further, the chromatographic logP in data set [1] was 3.78. For the same molecule, the “PAMPA-BBB Permeability Pe” value in “in vitro” was “impossible to be detected; also recorded: High hydrophobicity; it retained in the membrane”.
On to `CC(=O)CC1c2ccccc2CCN1c1ccccc1` (stereo not shown) [Compound 2a], for which the concentration for half-maximal inhibition (IC50) against eeAChE (setting [6]) and on eqBuChE was > 10 µM in each case.
As to `COc1cc2c(cc1OC)C(CC(=O)c1ccccc1)N(c1ccc(C)cc1)CC2` (stereo not shown) [Compound 3e], on eeAChE (setting [6]), the IC50 is > 10 µM.
In the case of `COc1ccc(N2CCc3ccccc3C2CC(=O)c2ccccc2)cc1` (stereo not shown) [Compound 3b], the IC50 on eeAChE (setting [6]) was 9.05 ± 0.81 µM; at eqBuChE, > 10 µM.
With `O=C(CCc1ccccc1)CCC1c2ccccc2CCN1c1ccc(F)cc1` (stereo not shown) [Compound 3j], the “Selectivity Index for AChE” value on eeAChE amounted to 1.55. For the same molecule, the half-inhibitory concentration (IC50) against eeAChE (setting [6]) was determined as 2.91 ± 0.09 µM; on eqBuChE, 4.52 ± 0.15 µM.
With `COc1cc2c(cc1OC)C(CCC(=O)CCc1ccccc1)N(c1ccc(F)cc1)CC2` (stereo not shown) [Compound 3l], the half-maximal inhibitory concentration (IC50) against eeAChE (setting [6]) and on eqBuChE was > 10 µM each time.
As for `COc1cc2c(cc1OC)C(CC(=O)c1ccccc1)N(c1ccccc1)CC2` (stereo not shown) [Compound 3c], the “Selectivity Index for AChE” value at eeAChE is recorded as >5. Moreover, on eeAChE (setting [6]), the IC50 is 1.95 ± 0.23 µM. Also, on eeAChE (compared to compound 2c), the “fold increase in inhibitory activity towards AChE” value worked out at 2.5 fold. Further, the half-maximal inhibitory concentration (IC50) on eqBuChE was > 10 µM. Also, on AChE [2], the “Type of Inhibition (AChE)” value is on record as “Non-competitive” and the Ki is 1780 ± 100 nM. Moreover, the “Quenching of Trp fluorescence of AChE” value on AChE [4] is on record as “no quenching of Trp fluorescence”. For the same molecule, the chromatographic logP in data set [1] came to 3.39. Moreover, in the data set “in vitro”, the apparent permeability (Papp) turned out to be 47.5 ×10⁻⁶ cm/s and the “PAMPA-BBB Permeability Pe” value is “successfully crossed the artificial blood−brain barrier; also recorded: able to cross the BBB”.
